The values below come from patent publication US4206215A, “Antimicrobial bis-[4-(substituted-amino)-1-pyridinium]alkanes” (Sterling Drug Inc., priority 1977, dated 1980).

The structures appear in SMILES notation.

In assay [1] the test system is E. coli AB1932-1. Kind of assay: In vitro antibacterial activity, MIC (modified Autotiter method). Format: cell-based, Escherichia coli. Particulars: Escherichia coli, AB19321, 20 h, 18-20 hours at 37° C.; read-out: MIC E. coli AB1932-1. The essentials:
(§1)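 MIC by modified Autotiter twofold broth dilution from a 1,000 mcg./ml. compound solution in inoculated semisynthetic glucose medium. Final drug concentrations ranged from 500 to 0.06 mcg./ml.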

For assay [2], the system named is E. coli Vogel. The assay is described as above. Particulars: Escherichia coli, 20 h, 18-20 hours at 37° C.; read-out: MIC E. coli Vogel. In kind it is cell-based, Escherichia coli. In a few lines:
as §1

In assay [3] the test system is E. coli 100/B22. The assay is described as above. Format: cell-based, Escherichia coli. Particulars: Escherichia coli, 100/B22, 20 h, 18-20 hours at 37° C.; read-out: MIC E. coli 100/B22. The essentials:
as §1

In assay [4] the test system is T. menta. 9129. As to the kind of experiment: In vitro antifungal activity, MIC (modified Autotiter method). The settings on record: Trichophyton mentagrophytes, 20 h, 18-20 hours at 37° C.; read-out: MIC T. menta. 9129. Format: cell-based, Trichophyton mentagrophytes. The essentials:
as §1

Assay [5] relates to Herpes simplex type 2 virus. Kind of assay: Virucidal activity in vitro (plaque inhibition test). In kind it is cell-based. The settings on record: 2 mg. of test compound on growth medium. The protocol:
Virucidal activity of representative examples against Herpes simplex type 2 virus was determined in vitro employing a procedure similar to the plaque inhibition test for detection of specific inhibitors of DNA-containing viruses published by E. C. Herrmann, Jr., Proc. Soc. Exp. Biol. Med. 107, 142 (1961) wherein 2 mg. of the test compound was placed on the surface of the growth medium.

The subject of assay [6] is K. pneum. 39645. As to the kind of experiment: In vitro antibacterial activity, MIC (modified Autotiter method). In kind it is cell-based, Klebsiella pneumoniae. The settings on record: Klebsiella pneumoniae, 20 h, 18-20 hours at 37° C.; read-out: MIC K. pneum. 39645. The essentials:
as §1

Assay [7] deals with P. mirab. MGH-1. The description is as above. In kind it is cell-based, Proteus mirabilis. Particulars: Proteus mirabilis, 20 h, 18-20 hours at 37° C.; read-out: MIC P. mirab. MGH-1. The essentials: as §1
The subject of assay [8] is S. pyogen. C203. Described as above. Format: cell-based, Streptococcus pyogenes. The settings on record: Streptococcus pyogenes, 20 h, 18-20 hours at 37° C.; read-out: MIC S. pyogen. C203. The essentials: as §1
Assay [9] relates to A. niger 16404. Kind of assay: In vitro antifungal activity, MIC (modified Autotiter method). Format: cell-based, Aspergillus niger. Particulars: Aspergillus niger, 16404, 20 h, 18-20 hours at 37° C.; read-out: MIC A. niger 16404. In a few lines:
as §1

In assay [10] the test system is Ps. aerug. MGH-2. Kind of assay: In vitro antibacterial activity, MIC (modified Autotiter method). In kind it is cell-based, Pseudomonas aeruginosa. The settings on record: Pseudomonas aeruginosa, 20 h, 18-20 hours at 37° C.; read-out: MIC Ps. aerug. MGH-2. The essentials: as §1
Assay [11] deals with S. Aureus Smith. The description is as above. Format: cell-based, Staphylococcus aureus. Particulars: Staphylococcus aureus, 20 h, 18-20 hours at 37° C.; read-out: MIC S. Aureus Smith. The essentials:
as §1

Assay [12] deals with C. albicans Wisc. Kind of assay: In vitro antifungal activity, MIC (modified Autotiter method). Format: cell-based, Candida albicans. The settings on record: Candida albicans, 20 h, 18-20 hours at 37° C.; read-out: MIC C. albicans Wisc. In a few lines: as §1
In assay [13] the test system is C. albicans 10231. The description is as above. Format: cell-based, Candida albicans. Particulars: Candida albicans, 10231, 20 h, 18-20 hours at 37° C.; read-out: MIC C. albicans 10231. The essentials:
as §1

Regarding `CCCCCCNc1cc[n+](CCCC[n+]2ccc(NCCCCCC)cc2)cc1` [Example 16, 1,4-bis-[4-(hexylamino)-1-pyridinium]butane dibromide], the MIC in assay [1] was 62.5 µg/mL; in assay [2], 125 µg/mL; in assay [3], 125 µg/mL; in assay [4] it was 15.6 µg/mL; in [6], greater than 125 µg/mL; in assay [7], greater than 125 µg/mL. For the same molecule, the MIC in [8] is 1.95 µg/mL; in [9], 125 µg/mL; in assay [10] it was greater than 250 µg/mL; in assay [11], 7.8 µg/mL; in assay [12], 125 µg/mL; in assay [13] it was 125 µg/mL. In [5], the “Virucidal activity against Herpes simplex type 2 virus” value (shortened to “Virucidal activity”) was “inactive”.

Regarding `CCCCCCNc1cc[n+](CCCCCC[n+]2ccc(NCCCCCC)cc2)cc1` [Example 17, 1,6-bis-[4-(hexylamino)-1-pyridinium]-hexane dibromide], the MIC was 7.8 µg/mL in [1]; 31.3 µg/mL in assay [2]; 0.78 µg/mL in assay [3]; 125 µg/mL in [6]; greater than 250 µg/mL in assay [7]; greater than 250 µg/mL in assay [8]. In addition, the MIC in assay [9] is 7.8 µg/mL; in assay [10] it was greater than 125 µg/mL; in [11] it was 0.49 µg/mL; in assay [12], 15.6 µg/mL; in assay [13] it was 15.6 µg/mL. Moreover, the “Virucidal activity” value in assay [5] is listed as “active”.

Regarding `CCCCCCNc1cc[n+](CCCCCCC[n+]2ccc(NCCCCCC)cc2)cc1` [Example 18, 1,7-bis-[4-(hexylamino)-1-pyridinium]heptane dibromide], the MIC in assay [1] was 7.8 µg/mL; in [2], 15.6 µg/mL; in assay [3], 7.8 µg/mL; in [4], 15.6 µg/mL; in [6], 15.6 µg/mL; in [7] it was greater than 125 µg/mL. The MIC in assay [8] is 0.49 µg/mL; in assay [9], 15.6 µg/mL; in [10], greater than 125 µg/mL; in assay [11] it was 0.39 µg/mL; in assay [12], 7.8 µg/mL; in assay [13] it was 6.25 µg/mL. Also, in assay [5], the “Virucidal activity” value is on record as “active”.

In the case of `CCCCCCCNc1cc[n+](CCCCCCC[n+]2ccc(NCCCCCCC)cc2)cc1` [Example 21, 1,7-bis-[4-(heptylamino)-1-pyridinium]heptane dibromide], the MIC in assay [1] is 1.95 µg/mL; in [2] it was 1.95 µg/mL; in assay [3], 1.95 µg/mL; in assay [4], 3.9 µg/mL; in assay [6], 3.9 µg/mL; in [7], 125 µg/mL. The MIC in assay [8] came out at 0.98 µg/mL; in assay [9], 15.6 µg/mL; in [10], 125 µg/mL; in assay [11] it was 0.24 µg/mL; in [12], 3.9 µg/mL; in assay [13] it was 3.9 µg/mL. For the same molecule, in assay [5], the “Virucidal activity” value is listed as “active”.

`CCCCCCNc1cc[n+](CCCCC[n+]2ccc(NCCCCCC)cc2)cc1` [Example 31, 1,5-bis-[4-(hexylamino)-1-pyridinium]pentane dibromide]: the MIC is 31.3 µg/mL in assay [1]; 125 µg/mL in [2]; 62.5 µg/mL in [3]; 31.3 µg/mL in assay [4]; greater than 125 µg/mL in [6]; greater than 250 µg/mL in assay [7]. Besides, the MIC in [8] was 0.98 µg/mL; in assay [9], 31.3 µg/mL; in assay [10], greater than 125 µg/mL; in assay [11], 1.95 µg/mL; in assay [12], 62.5 µg/mL; in assay [13], 31.3 µg/mL. Also, the “Virucidal activity” value in assay [5] is listed as “active”.

With `c1c[n+](CCCC[n+]2ccc(NC3CCCCC3)cc2)ccc1NC1CCCCC1` [Example 34, 1,4-bis-[4-(cyclohexylamino)-1-pyridinium]butane dibromide], the MIC was 125 µg/mL in assay [1]; 125 µg/mL in assay [2]; 125 µg/mL in [3]; 125 µg/mL in [4]; greater than 500 µg/mL in assay [6]; greater than 500 µg/mL in [7]. Besides, the MIC in assay [8] was 31.3 µg/mL; in assay [9] it was 500 µg/mL; in assay [10], greater than 500 µg/mL; in assay [11], 125 µg/mL; in [12] it was 500 µg/mL; in assay [13] it was 500 µg/mL. For the same molecule, in assay [5], the “Virucidal activity” value is “inactive”.

For the molecule `c1c[n+](CCCCC[n+]2ccc(NC3CCCCC3)cc2)ccc1NC1CCCCC1` [Example 35, 1,5-bis-[4-(cyclohexylamino)-1-pyridinium]pentane dibromide], the MIC in [1] is greater than 500 µg/mL; in assay [2] it was greater than 500 µg/mL; in assay [3], greater than 500 µg/mL; in [4], 125 µg/mL; in [6] it was greater than 500 µg/mL; in assay [7] it was greater than 500 µg/mL. For the same molecule, the MIC is 15.6 µg/mL in assay [8]; 500 µg/mL in [9]; greater than 500 µg/mL in assay [10]; 125 µg/mL in assay [11]; 500 µg/mL in assay [12]; 500 µg/mL in assay [13]. Further, in assay [5], the “Virucidal activity” value is “active”.

Regarding `c1c[n+](CCCCCC[n+]2ccc(NC3CCCCC3)cc2)ccc1NC1CCCCC1` [Example 36, 1,6-bis-[4-(cyclohexylamino)-1-pyridinium]hexane dibromide], the MIC in assay [1] was 125 µg/mL; in assay [2] it was greater than 125 µg/mL; in assay [3], greater than 125 µg/mL; in assay [4] it was 15.6 µg/mL; in assay [6] it was greater than 125 µg/mL; in assay [7] it was greater than 125 µg/mL. Further, the MIC in assay [8] was 15.6 µg/mL; in assay [9], 125 µg/mL; in assay [10], greater than 125 µg/mL; in [11], 15.6 µg/mL; in assay [12] it was 125 µg/mL; in assay [13], 125 µg/mL. Further, in assay [5], the “Virucidal activity” value is “active”.

Turning to `c1c[n+](CCCCCCC[n+]2ccc(NC3CCCCC3)cc2)ccc1NC1CCCCC1` [Example 37, 1,7-bis-[4-(cyclohexylamino)-1-pyridinium]heptane dibromide], the MIC is 125 µg/mL in assay [1]; greater than 125 µg/mL in assay [2]; greater than 125 µg/mL in [3]; 15.6 µg/mL in assay [4]; greater than 125 µg/mL in [6]; greater than 125 µg/mL in [7]. Further, the MIC was 7.8 µg/mL in [8]; greater than 125 µg/mL in assay [9]; 125 µg/mL in assay [10]; 7.8 µg/mL in assay [11]; 125 µg/mL in [12]; 125 µg/mL in assay [13]. For the same molecule, in assay [5], the “Virucidal activity” value is “active”.

In the case of `c1c[n+](CCCCCCCCC[n+]2ccc(NC3CCCCC3)cc2)ccc1NC1CCCCC1` [Example 39, 1,9-bis-[4-(cyclohexylamino)-1-pyridinium]nonane dibromide], the MIC in [1] was 31.3 µg/mL; in assay [2] it was 31.3 µg/mL; in assay [3], 31.3 µg/mL; in assay [4], 3.9 µg/mL; in assay [6] it was 125 µg/mL; in assay [7], greater than 500 µg/mL. Also, the MIC turned out to be 3.9 µg/mL in assay [8]; 7.8 µg/mL in [9]; 500 µg/mL in assay [10]; 0.98 µg/mL in assay [11]; 15.6 µg/mL in assay [12]; 15.6 µg/mL in assay [13]. The “Virucidal activity” value in assay [5] was “inactive”.
